Where two headings read alike, the source gives them in different places.
Key:
[1] = test system: LLC-MK2 cells; assay: Viability assay (Alamar Blue) on LLC-MK2 cells; assay type: cell-based, Rhesus monkey; conditions: Macaca mulatta, read-out: Mammalian cells IC50 ± SD, LLC-MK2
Experimental: (§1) Rhesus monkey kidney epithelial cell LLC-MK2 (American Type Culture Collection-ATCC, Manassas, Va. # CCL-7), Hs-27 human fibroblasts (American Type Culture Collection-ATCC, Manassas, Va.), RAW 264.7 murine macrophages (American Type Culture Collection-ATCC, Manassas, Va.) U2-09 human osteoblasts (American Type Culture Collection-ATCC, Manassas, Va. # HTB-99) (American Type Culture Collection-ATCC, Manassas, Va.) cells were cultured in Dulbecco's Modified Eagle's Medium (DMEM), supplemented with 10% inactivated FBS, along with 1% of 10,000 units/ml penicillin and 10 mg/ml streptomycin in 0.9% sodium chloride. Intraperitoneal BALB/c mice macrophages were obtained and cultured in DMEM high-glucose, +L-glu, supplemented with 10% FBS (inactivated). The procedure was performed minimizing the distress and pain for the animals following the NIH guidance and animal protocol approved by UTEP's Institutional Animal Care and Use Committee (IACUC).
(§2) Viability assay on mammalian cells and T. cruzi epimastigotes. The cytotoxicity and anti-trypanosomal activity of the NC compounds was tested in human Hs27 fibroblasts (ATCC CRL-1634), LLC-MK2 cells (ATCC CCL-7), RAW 264.7 murine macrophages (ATCC TIB71) (American Type Culture Collection-ATCC, Manassa, Va.), mice intraperitoneal macrophages and in epimastigote forms of T. cruzi Y strain using Alamar Blue assay (Invitrogen—Life Technology, Grand Island, N.Y.). The experiments were performed as described using a range of concentration of 500 μM to 1 nM.
(§3) The statistical significance (p-value) of the compound's cytotoxicity was calculated using the General Linear Mixed Model Analysis. This analysis was used to test the linear effect of the logarithm of dose on the logit transformation of the percent survival. The IC50 was obtained as the exponent of the negative ratio of the y-intercept and the slope of the fitted regression line (SAS Software, Version 9.2). […] All experiments had statistical significance determined at p≦0.05(*), p≦0.01(**), and p≦0.001(***).

[2] = test system: T. cruzi intracellular amastigotes; assay: High-content imaging infectivity assay, T. cruzi amastigote-infected human osteoblasts; assay type: cell-based, Trypanosoma cruzi; conditions: for IC50: Trypanosoma cruzi, Osteoblast; for parasite burden / percentage of infected cells, T. cruzi infected mammalian cells: human osteoblasts, 48 h
Experimental: Human osteoblasts were infected with T. cruzi trypomastigotes and were treated with each compound at multiple concentrations for 48 hours.
In vitro evaluation of the NC drug library on infectivity experiments by high-content imaging assay. Mice intraperitoneal macrophages and human osteoblasts were placed in a microplate and infected with the amastigote forms of L. major strain Friedlin clone V1 and T. cruzi Y strain respectably, followed by treatment with NC lead compounds (as shown in Table 1). Briefly, Image acquisition and analyses of the plates were carried out using the BD Pathway 855 high-resolution fluorescence bioimager system (BD Biosciences). Filter sets appropriate for the excitation and emission spectra of Draq5 were utilized. Images from […] (3×3 montage) were acquired per well with a 20× objective. To perform the host cell segmentation and counting of parasites, the BD AttoVision™ v1.6.2 Sub Object analysis was used. Draq5 creates a background, staining the host cell and parasite nucleus, but defining the cytoplasm as well, determining this way the amount of parasites within each mammalian cell. The host cell nucleus was excluded by size difference. Subsequently, the infection index was calculated based on the mean of these triplicate values by multiplying the percentage of infected cells and the constraints used in the HCIA assay that was of 2, 3, 5, and 8 parasites per cell.

[3] = test system: BALB/c mice intraperitoneal macrophages; assay: Annexin V/PI assay on intraperitoneal macrophages; assay type: cell-based, mouse
Experimental: (§4) Apoptosis was evaluated using Alexa Fluor® 488 Annexin V/PI Apoptosis Kit (Initrogen™-Life technology, Grand Island, N.Y.). L. major promastigotes and BALB/c mice intraperitoneal macrophages were treated with each compound for 24 h. After exposure, the parasites (5×10^7) and macrophages (5×10^6) were harvested, washed and re-suspended with PBS. The Annexin V/PI staining of cells followed the manufacturer's instructions. Then the samples were analyzed with Beckman Coulter Fc500 flow cytometer (Beckman Coulter, USA). The results were expressed as the number of annexin positive cells per thousand cells counted.

[4] = test system: Hs27 human fibroblasts; assay: Viability assay (Alamar Blue) on Hs27 fibroblasts; assay type: cell-based; conditions: read-out: Mammalian cells IC50 ± SD, Hs27 Fibroblasts
Experimental: as §1, §2, §3

[5] = Weight and toxicity monitoring in treated infected mice; assay type: in vivo, BALB/c mice; conditions: for deaths as a result of compound toxicity / weight loss: 10^5 infection experiment; for weight loss: daily IP treatment
Experimental: The in vivo experiments were comprised of four groups of five mice each: (1) infected, but not treated [control for the infection—100 μL of DMSO per day, drug diluent]; (2) treated with NC884, NC901 or NC2459, but not infected with the parasites [control for drug toxicity]; (3) infected with the parasites and treated with amphotericin B (8 mg/kg/day) [reference drug; positive control]; and (4) infected with the parasites and treated with NC884, NC901 or NC2459 [experimental group]. Luciferase expressing metacyclic promastigotes L. major (Freidlin V1) were obtained as described previously. Suspensions of 1×10^5 or 1×10^6 parasites per 50 μl of sterile DMEM (endotoxin-free) were injected with a 30G needle into the left hind footpad of BALB/c mice. Two weeks post-infection the compounds were administered once a day by intraperitoneal route, daily for 14 to 17 days. Twice a week, weights were recorded to monitor toxicity and the thickness of the infected footpad and the non-infected footpad was measured with digital calipers to monitor the progression of the disease. The parasitic load also was evaluated through in vivo imaging using luminescence (Kodak Image Station). The mice were injected intra-peritoneally with 150 mg/kg D-luciferin (Sigma, USA) 10 min before imaging, anesthetized with 1-2% isofluorane in oxygen during imaging and the net intensity emitted from the footpad was quantified using the KODAK Image Station software. Parasite burden was expressed as net intensity emitted from L. major infected footpad lesions normalized against the background fluorescence of uninfected mice. The presence/absence of parasites was confirmed by PCR using L. major methionine aminopeptidase (MetAP1) 1 specific primers: 5′-[…]-3′ (SEQ ID NO:1) and 5′-[…]-3′ (SEQ ID NO:2) on cDNA reverse transcribed from total RNA extracted from footpad lysate obtained by macerating footpad tissue fragments in Trizol (Invitrogen Life Technologies, United States) with the gentleMACS™ Dissociator (Miltenyi Biotec GmbH, Germany) following the manufacturer's protocol.

[6] = test system: L. major promastigotes; assay: Annexin V/PI assay on L. major promastigotes; assay type: cell-based, Leishmania major; conditions: 24 h; NC901 2.5 μM, NC884 2.5 μM, NC2459 312 nM
Experimental: as §4

[7] = test system: BALB/c intraperitoneal macrophages; assay: Viability assay (Alamar Blue) on peritoneal murine macrophages; assay type: cell-based; conditions: Mus musculus, Macrophage; read-out: Mammalian cells IC50 ± SD, Peritoneal Murine Macrophages
Experimental: as §2

[8] = in human osteoblasts, 48 h treatment, read-out: T. cruzi Intracellular Amastigotes IC50
[9] = same concentrations as in L. major promastigotes, 24 h

## CN(C)CC1CCC(CN(C)C)C1=O (centres unmarked) [NC884]
[1]
  IC50: 15.1 ± 0.33 µM
[2]; [8]
  IC50: 0.987 ± 0.11 µM
[2]; 3 or more amastigotes per cell
  parasite burden / percentage of infected cells, T. cruzi infected mammalian cells: significantly reduced the parasite burden
[3]; [9]
  annexin V positive cells in macrophages: No effect
[4]
  IC50: 16.3 ± 0.17 µM
[5]
  deaths as a result of compound toxicity: no mice died
  weight loss: no significant weight loss
[6]
  annexin V binding (apoptosis-like effect) vs 1% DMSO: significantly induced an apoptosis-like effect
[7]
  IC50: 7.67 ± 0.31 µM

## CN(C)CC1CCCC(CN(C)C)C1=O (centres unmarked) [NC901]
[1]
  IC50: 8.02 ± 0.25 µM
[2]; [8]
  IC50: 0.301 ± 0.09 µM
[2]; 3 or more amastigotes per cell
  parasite burden / percentage of infected cells, T. cruzi infected mammalian cells: significantly reduced the parasite burden
[3]
  annexin V positive cells in macrophages: No effect
[4]
  IC50: 16 ± 0.12 µM
[5]
  deaths as a result of compound toxicity: no mice died
  weight loss: no significant weight loss
[6]
  annexin V binding (apoptosis-like effect) vs 1% DMSO: significantly induced an apoptosis-like effect
[7]
  IC50: 7.03 ± 0.42 µM

## O=C1/C(=C/c2ccccc2)CN(C(=O)C(=O)N2C/C(=C\c3ccccc3)C(=O)/C(=C/c3ccccc3)C2)C/C1=C\c1ccccc1 [NC2459]
[1]
  IC50: 2 ± 0.093 µM
[2]; 48 hours, 3 or more amastigotes per cell, read-out: IC50, T. cruzi amastigote-infected human osteoblasts
  IC50: 0.227 µM
[2]; [8]
  IC50: 0.227 ± 0.04 µM
[2]; 3 or more amastigotes per cell
  parasite burden / percentage of infected cells, T. cruzi infected mammalian cells: significantly reduced the parasite burden
[3]; [9]
  annexin V positive cells in macrophages: No effect
[4]
  IC50: 10.01 ± 0.09 µM
[5]
  deaths as a result of compound toxicity: no mice died
  weight loss: no significant weight loss
[5]; 10^6 infection, 8 mg/kg/day extended treatment
  additional weight loss or toxic side effects compared to the control group: did not result in any additional weight loss or toxic side effects
[6]
  annexin V binding (apoptosis-like effect) vs 1% DMSO: significantly induced an apoptosis-like effect
[7]
  IC50: 5.45 ± 0.36 µM

From patent US9669016B2, “Antiparasitic effect of Bis[3,5-Bis(Benzylidene)-4-Oxo-1-Piperidinyl]amide Derivatives” (priority 2014, dated 2017)
